Assay results published in ChEMBL document CHEMBL1201862, “PubChem BioAssay data set” (2004).
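Dose response: 5 concentrations. Exposure: 48 h. Format: 96-well plates. Endpoint: linear interpolation; highest concentration if not reached. GI50 = concentration required for 50% inhibition of growth.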 Calls of active or inactive are those of the source. No stated cut-off is given here; in the data, active = GI50 up to about 1.1 µM and inactive = higher.

What was measured:
Assay in all cases: NCI anticancer screen, dose series, 48 h
NCI/ADR-RES = test system: NCI/ADR-RES
PC-3 = test system: PC-3
NCI-H522 = test system: NCI-H522
RXF 393 = test system: RXF 393
U-251 = test system: U-251
Hs-578T = test system: Hs-578T
HCT-15 = test system: HCT-15
HT-29 = test system: HT-29
OVCAR-3 = test system: OVCAR-3
SNB-19 = test system: SNB-19
UACC-257 = test system: UACC-257
ACHN = test system: ACHN
SW-620 = test system: SW-620
OVCAR-8 = test system: OVCAR-8
OVCAR-5 = test system: OVCAR-5
UACC-62 = test system: UACC-62
HCT-116 = test system: HCT-116
NCI-H23 = test system: NCI-H23
SF-539 = test system: SF-539
DU-145 = test system: DU-145
MDA-N = test system: MDA-N
A498 = test system: A498
KM12 = test system: KM12
OVCAR-4 = test system: OVCAR-4
SN12C = test system: SN12C
SF-268 = test system: SF-268
SR = test system: SR
SK-MEL-5 = test system: SK-MEL-5
TK-10 = test system: TK-10
IGROV-1 = test system: IGROV-1
SK-MEL-2 = test system: SK-MEL-2
MOLT-4 = test system: MOLT-4
M14 = test system: M14
MDA-MB-231 = test system: MDA-MB-231
HL-60 = test system: HL-60
UO-31 = test system: UO-31
A549 = test system: A549
CCRF-CEM = test system: CCRF-CEM
SF-295 = test system: SF-295
NCI-H226 = test system: NCI-H226
MDA-MB-435 = test system: MDA-MB-435
786-0 = test system: 786-0
HOP-92 = test system: HOP-92
EKVX = test system: EKVX
CAKI-1 = test system: CAKI-1
LOX IMVI = test system: LOX IMVI
COLO 205 = test system: COLO 205
MCF7 = test system: MCF7
NCI-H460 = test system: NCI-H460
SNB-75 = test system: SNB-75
SK-MEL-28 = test system: SK-MEL-28
HCC 2998 = test system: HCC 2998
SK-OV-3 = test system: SK-OV-3
K562 = test system: K562
T47D = test system: T47D
RPMI-8226 = test system: RPMI-8226
Malme-3M = test system: Malme-3M
HOP-62 = test system: HOP-62

For `CC#Cc1ccc(-c2ccccc2)s1`, the GI50 (NCI/ADR-RES) was > 100 µM (inactive), the GI50 (PC-3) was > 100 µM (inactive) and the GI50 (NCI-H522) was > 100 µM (inactive). For the same molecule, the GI50 (RXF 393) was > 100 µM (inactive), the GI50 (U-251) was > 100 µM (inactive) and the GI50 (Hs-578T) was > 100 µM (inactive). For the same molecule, the GI50 (HCT-15) was greater than 100 µM, the GI50 (HT-29) was > 100 µM (inactive) and the GI50 (OVCAR-3) was > 100 µM (inactive). For the same molecule, the GI50 (SNB-19) was > 100 µM (inactive), the GI50 (UACC-257) was > 100 µM (inactive) and the GI50 (ACHN) was > 100 µM (inactive). For the same molecule, the GI50 (SW-620) was > 100 µM (inactive), the GI50 (OVCAR-8) was > 100 µM (inactive) and the GI50 (OVCAR-5) was > 100 µM (inactive). For the same molecule, the GI50 (UACC-62) was > 100 µM (inactive), the GI50 (HCT-116) was > 100 µM (inactive) and the GI50 (NCI-H23) was 68.9 µM (inactive). The GI50 (SF-539) was > 100 µM (inactive), the GI50 (DU-145) was > 100 µM (inactive) and the GI50 (MDA-N) was > 100 µM (inactive). The GI50 (A498) was > 100 µM (inactive), the GI50 (KM12) was > 100 µM (inactive) and the GI50 (OVCAR-4) was > 100 µM (inactive). For the same molecule, the GI50 (SN12C) was > 100 µM (inactive), the GI50 (SF-268) was > 100 µM (inactive) and the GI50 (SR) was > 100 µM (inactive). For the same molecule, the GI50 (SK-MEL-5) was > 100 µM (inactive), the GI50 (TK-10) was > 100 µM (inactive) and the GI50 (IGROV-1) was > 100 µM (inactive). The GI50 (SK-MEL-2) was > 100 µM (inactive), the GI50 (MOLT-4) was > 100 µM (inactive) and the GI50 (M14) was > 100 µM (inactive). For the same molecule, the GI50 (MDA-MB-231) was > 100 µM (inactive), the GI50 (HL-60) was > 100 µM (inactive) and the GI50 (UO-31) was > 100 µM (inactive). The GI50 (A549) was > 100 µM (inactive), the GI50 (CCRF-CEM) was > 100 µM (inactive) and the GI50 (SF-295) was > 100 µM (inactive). The GI50 (NCI-H226) was > 100 µM (inactive), the GI50 (MDA-MB-435) was > 100 µM (inactive) and the GI50 (786-0) was > 100 µM (inactive). The GI50 (HOP-92) was > 100 µM (inactive), the GI50 (EKVX) was > 100 µM (inactive) and the GI50 (CAKI-1) was > 100 µM (inactive). The GI50 (LOX IMVI) was > 100 µM (inactive), the GI50 (COLO 205) was > 100 µM (inactive) and the GI50 (MCF7) was > 100 µM (inactive). The GI50 (NCI-H460) was > 100 µM (inactive), the GI50 (SNB-75) was > 100 µM (inactive) and the GI50 (SK-MEL-28) was > 100 µM (inactive).

`Cc1ccc(S(=O)(=O)NCCCSCCO)cc1` was tested, and the GI50 (HCC 2998) was > 100 µM (inactive), the GI50 (NCI/ADR-RES) was > 100 µM (inactive) and the GI50 (SK-OV-3) was > 100 µM (inactive). The GI50 (PC-3) was 30 µM (inactive), the GI50 (NCI-H522) was > 100 µM (inactive) and the GI50 (RXF 393) was > 100 µM (inactive). The GI50 (U-251) was 8.26 µM (inactive), the GI50 (Hs-578T) was 30.5 µM (inactive) and the GI50 (HCT-15) was greater than 100 µM. For the same molecule, the GI50 (HT-29) was 33.6 µM (inactive), the GI50 (OVCAR-3) was 31.6 µM (inactive) and the GI50 (SNB-19) was 9.04 µM (inactive). For the same molecule, the GI50 (UACC-257) was 44.1 µM (inactive), the GI50 (ACHN) was > 100 µM (inactive) and the GI50 (K562) was 38.4 µM (inactive). The GI50 (SW-620) was 89.7 µM (inactive), the GI50 (OVCAR-8) was 57.8 µM (inactive) and the GI50 (HCT-116) was 27.2 µM (inactive). For the same molecule, the GI50 (NCI-H23) was 25.6 µM (inactive), the GI50 (DU-145) was > 100 µM (inactive) and the GI50 (MDA-N) was 55 µM (inactive). The GI50 (A498) was > 100 µM (inactive), the GI50 (KM12) was 20.6 µM (inactive) and the GI50 (OVCAR-4) was 96.8 µM (inactive). The GI50 (SN12C) was 43 µM (inactive), the GI50 (SF-268) was 10 µM (inactive) and the GI50 (SR) was > 100 µM (inactive). For the same molecule, the GI50 (SK-MEL-5) was 13.9 µM (inactive), the GI50 (TK-10) was 90.8 µM (inactive) and the GI50 (T47D) was 21.7 µM (inactive). For the same molecule, the GI50 (MOLT-4) was 56.5 µM (inactive), the GI50 (M14) was 28.6 µM (inactive) and the GI50 (MDA-MB-231) was 27.7 µM (inactive). The GI50 (HL-60) was 26.1 µM (inactive), the GI50 (UO-31) was > 100 µM (inactive) and the GI50 (A549) was 10.5 µM (inactive). The GI50 (CCRF-CEM) was 33.3 µM (inactive), the GI50 (SF-295) was > 100 µM (inactive) and the GI50 (NCI-H226) was 27.9 µM (inactive). For the same molecule, the GI50 (MDA-MB-435) was 45.2 µM (inactive), the GI50 (HOP-92) was 36.4 µM (inactive) and the GI50 (LOX IMVI) was 29 µM (inactive). For the same molecule, the GI50 (COLO 205) was 18.3 µM (inactive), the GI50 (MCF7) was 32.8 µM (inactive) and the GI50 (NCI-H460) was 43.9 µM (inactive). For the same molecule, the GI50 (SNB-75) was 33.1 µM (inactive) and the GI50 (SK-MEL-28) was > 100 µM (inactive).

For `CN1CCN(c2cc3nsnc3c3nsnc23)CC1`, the GI50 (HCC 2998) was > 10 µM (inactive), the GI50 (SK-OV-3) was > 10 µM (inactive) and the GI50 (PC-3) was > 10 µM (inactive). The GI50 (RPMI-8226) was > 10 µM (inactive), the GI50 (RXF 393) was > 10 µM (inactive) and the GI50 (HCT-15) was greater than 10 µM. For the same molecule, the GI50 (HT-29) was > 10 µM (inactive), the GI50 (UACC-257) was > 10 µM (inactive) and the GI50 (K562) was > 10 µM (inactive). For the same molecule, the GI50 (SW-620) was > 10 µM (inactive), the GI50 (OVCAR-8) was > 10 µM (inactive) and the GI50 (Malme-3M) was > 10 µM (inactive). For the same molecule, the GI50 (UACC-62) was > 10 µM (inactive), the GI50 (NCI-H23) was > 10 µM (inactive) and the GI50 (DU-145) was > 10 µM (inactive). For the same molecule, the GI50 (MDA-N) was > 10 µM (inactive), the GI50 (KM12) was > 10 µM (inactive) and the GI50 (SN12C) was > 10 µM (inactive). For the same molecule, the GI50 (SF-268) was > 10 µM (inactive), the GI50 (SR) was > 10 µM (inactive) and the GI50 (SK-MEL-5) was > 10 µM (inactive). The GI50 (TK-10) was > 10 µM (inactive), the GI50 (T47D) was > 10 µM (inactive) and the GI50 (IGROV-1) was > 10 µM (inactive). For the same molecule, the GI50 (MOLT-4) was > 10 µM (inactive), the GI50 (M14) was > 10 µM (inactive) and the GI50 (HOP-62) was > 10 µM (inactive). For the same molecule, the GI50 (MDA-MB-231) was > 10 µM (inactive), the GI50 (HL-60) was > 10 µM (inactive) and the GI50 (A549) was > 10 µM (inactive). For the same molecule, the GI50 (CCRF-CEM) was > 10 µM (inactive), the GI50 (SF-295) was > 10 µM (inactive) and the GI50 (786-0) was > 10 µM (inactive). For the same molecule, the GI50 (EKVX) was > 10 µM (inactive), the GI50 (CAKI-1) was > 10 µM (inactive) and the GI50 (LOX IMVI) was > 10 µM (inactive). For the same molecule, the GI50 (COLO 205) was > 10 µM (inactive), the GI50 (MCF7) was > 10 µM (inactive) and the GI50 (SNB-75) was > 10 µM (inactive). For the same molecule, the GI50 (SK-MEL-28) was > 10 µM (inactive).

For `CC(CN(C)C)Nc1c2ccccc2nc2cccc([N+](=O)[O-])c12` (stereo unspecified), the GI50 (NCI-H522) was < 0.0153 µM (active), the GI50 (RXF 393) was < 0.01 µM (active) and the GI50 (SK-MEL-2) was < 0.01 µM (active).
